# Measurements taken from patent US9192650B2, “Methods of inhibiting photoreceptor apoptosis by eliciting the Faim2 antiapoptotic pathway” (The Regents of the University of Michigan, priority 2011, dated 2015).
# Entries after “also recorded” stand apart in the source; their conditions may differ.
# Assays:
# caspase 3 = assay: Luminescent caspase 3 activity assay in 661W cells; assay type: cell-based
# Protocol: (§1) The 661W cell line was maintained in Dulbecco's modified Eagle's medium containing 10% fetal bovine serum, 300 mg/L glutamine, 32 mg/L putrescine, 40 μL/L of β-mercaptoethanol, and 40 μg/L of both hydrocortisone 21-hemisuccinate and progesterone. The media also contained penicillin (90 units/mL) and streptomycin (0.09 mg/mL). Cells were grown at 37° C. in a humidified atmosphere of 5% CO2 and 95% air.
# (§2) Caspase 8 and Caspase 3 activity were measured by a commercially available luminescent tetrapeptide cleavage assay kits (Promega, Madison, Wis.). The 661W cells were seeded in 96-well plates (Nunc, Rochester, N.Y.) at 1000-1500 cells/well for 24 hours prior to treatment or siRNA transfection. Cells were treated with 500 ng/mL of Fas-agonistic Jo2 monoclonal antibody (BD Biosciences, Franklin Lakes, N.J.). In some experiments, cells were pretreated with MEK inhibitor U0126, JNK inhibitor SP600125, or DMSO. Caspase activity was measured at various time points by incubating the cells with the pro-luminescent substrate in 96-well plates following manufacturer's instructions. Controls included untreated cells and wells with no cells. Luminescence was measured in a plate reader luminometer (Turner Biosystems, Sunnyvale, Calif.).
# ERK = assay: Immunoblot of ERK phosphorylation (P-ERK) in Fas-AAb treated 661W cells; assay type: cell-based; conditions: inhibitor pretreatment 1 hour before Fas-AAb
# Protocol: as §1
# (§3) Retinas from experimental eyes with detachments and control eyes without detachments were dissected from the RPE-choroid, homogenized, and lysed in buffer containing 10 mM HEPES (pH 7.6), 0.5% IgEPal, 42 mM KCl, 1 mM phenylmethylsulfonyl fluoride (PMSF), 1 mM EDTA, 1 mM EGTA, 1 mM dithiothreitol (DTT), and 5 mM MgCl2 and 1 tablet of protease inhibitors per 10 mL buffer (Complete Mini; Roche Diagnostics GmbH, Madison, Wis.). 661W cells were lysed and homogenized in lysis buffer (as above). The homogenates were incubated on ice and centrifuged at 22,000 g at 4° C. for 60 minutes. The protein concentration of the supernatant was then determined (DC Protein Assay kit; Bio-Rad Laboratories, Hercules, Calif.). The protein samples were separated on SDS-polyacrylamide gels (Tris-HCl Ready Gels; Bio-Rad Laboratories, Hercules, Calif.). […] Protein bands were visualized with Ponceau S staining, and the lanes were assessed for equal loading by densitometry of entire lanes. […]
# 661W cells = assay: Luminescent cell viability assay, Fas-mediated cell death of 661W cells; assay type: cell-based; conditions: 661W cells treated with Fas-AAb
# Protocol: as §1
# as §2, with “Cell viability was” for “Caspase 8 and Caspase 3 activity were”, “luminescent” for “luminescent tetrapeptide cleavage”, “kit” for “kits”, “treatment.” for “treatment or siRNA transfection.”, “Cell viability” for “Caspase activity”, “Sunnyvale” for “Sunnyvale,”
# caspase 8 = assay: Luminescent caspase 8 activity assay in 661W cells; assay type: cell-based
# Protocol: as §1
# as §2, with “Calif.). […]” for “Calif.).”
# Faim2 = assay: Immunoblot of Faim2 protein levels in 661W cells; assay type: cell-based, mouse; conditions: 661W cells treated with Fas-AAb
# Protocol: as §1, §3
# c-Jun = assay: Immunoblot of phosphorylation of JNK-target c-Jun (P-c-Jun) in Fas-AAb treated 661W cells; assay type: cell-based; conditions: inhibitor pretreatment 1 hour before Fas-AAb
# Protocol: as §1, §3
# [1] = 661W cells treated with Fas-AAb
# [2] = 661W cells, 24 hours of Fas-AAb treatment
Compound,Maximally-effective dose for increasing caspase 3 activity (caspase 3; [1]),Caspase 3 activity in presence of inhibitor (caspase 3; [2]),Concentration of maximal inhibition of Fas-AAb-induced ERK phosphorylation (ERK),Effect on Fas-AAb-induced phosphorylation of ERK (ERK; protein isolated 4 hours later),Fas-AAb-mediated cell death in presence of inhibitor (661W cells),Maximally-effective dose for increasing caspase 8 activity (caspase 8; [1]),Caspase 8 activity in presence of inhibitor (caspase 8; [2]),Faim2 levels in Fas-AAb treated cells in presence of MAPK inhibitor (Faim2),Faim2 level by densitometry (Faim2; 10 μM dose of inhibitor),Concentration of maximal effect on Fas-AAb-dependent c-Jun phosphorylation (c-Jun)
N#CC(=C(/N)Sc1ccccc1N)/C(C#N)=C(\N)Sc1ccccc1N [U0126],10 µM,dose-dependent increase,10 µM,effective in preventing,increased Fas-AAb-mediated cell death,10 µM,dose-dependent increase,dose-dependent inhibition; also recorded: reduced the levels of Faim2,significant decrease,–
Oc1c2ccccc2c2c3c(cccc13)N=N2 [SP600125],–,–,–,–,–,–,–,–,–,10 to 20 µM
